# In PubChem BioAssay (NCI):
#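 Exposure lasted 48 hours, with cells grown in 96-well plates and compounds tested at five concentrations. The concentration for full growth arrest is given as TGI.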
# System: P388/ADR leukemia
# Assay: NCI tumour cell line growth inhibition, 48 h
structure (smiles),measurement,value
CCCCCCCC(=O)O[C@H]1[C@H]2[C@@H](CC1(C)C)C(=O)[C@]13O[C@H]1C(=O)[C@]1(CO1)[C@]23C,TGI,1650 nM
